Results taken from the supplement of paper PMC10307832.

Experiments:
Test in all cases: relative viability (nuclei count vs DMSO), 5 days (fraction); higher = more cells survive
Axitinib + Tozasertib = compound: CNC(=O)c1ccccc1Sc1ccc2c(/C=C/c3ccccn3)n[nH]c2c1 [Axitinib] + Cc1cc(Nc2cc(N3CCN(C)CC3)nc(Sc3ccc(NC(=O)C4CC4)cc3)n2)n[nH]1 [Tozasertib] (partner 0.1 µM)
Method in brief: (§1)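 Relative viability equals treated-well nuclei counts divided by vehicle-well nuclei counts. Counts came from 4× images of lung cancer cell lines grown in 1536-well plates for 5 days after pin-tool dosing on the day after seeding. Dosing used one drug alone or a fixed anchor-drug dose plus five library-drug doses (not always all listed) in √10 steps, and values are medians of duplicate plates.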

Axitinib + Luminespib = compound: CNC(=O)c1ccccc1Sc1ccc2c(/C=C/c3ccccn3)n[nH]c2c1 [Axitinib] + CCNC(=O)c1noc(-c2cc(C(C)C)c(O)cc2O)c1-c1ccc(CN2CCOCC2)cc1 [Luminespib] (partner 0.01 µM)
Method in brief: as §1

Bemcentinib + AZD7762 = compound: Nc1nc(Nc2ccc3c(c2)CC[C@@H](N2CCCC2)CC3)nn1-c1cc2c(nn1)-c1ccccc1CCC2 [Bemcentinib] + NC(=O)Nc1cc(-c2cccc(F)c2)sc1C(=O)N[C@H]1CCCNC1 [AZD7762] (partner 0.2 µM)
Method in brief: as §1

[1] = compound: CC1=CC=C(C=C1)C(=O)CN2C3=C(CCCC3)SC2=N [Pifithrin_alpha] + Cc1cc(Nc2cc(N3CCN(C)CC3)nc(Sc3ccc(NC(=O)C4CC4)cc3)n2)n[nH]1 [Tozasertib] (partner 0.1 µM)
Method in brief: as §1

Cell Line | relative viability (Axitinib + Tozasertib; first compound 0.005 µM) | relative viability (Axitinib + Tozasertib; first compound 0.01581 µM) | relative viability (Axitinib + Tozasertib; first compound 0.05 µM) | relative viability (Axitinib + Tozasertib; first compound 0.1581 µM) | relative viability (Axitinib + Tozasertib; first compound 0.5 µM) | relative viability (Axitinib + Luminespib; first compound 0.005 µM) | relative viability (Axitinib + Luminespib; first compound 0.01581 µM) | relative viability (Axitinib + Luminespib; first compound 0.05 µM) | relative viability (Axitinib + Luminespib; first compound 0.1581 µM) | relative viability (Axitinib + Luminespib; first compound 0.5 µM) | relative viability (Bemcentinib + AZD7762; first compound 0.04 µM) | relative viability (Bemcentinib + AZD7762; first compound 0.1265 µM) | relative viability (Bemcentinib + AZD7762; first compound 0.4 µM) | relative viability (Bemcentinib + AZD7762; first compound 1.265 µM) | relative viability (Bemcentinib + AZD7762; first compound 4 µM) | relative viability ([1]; first compound 1 µM) | relative viability ([1]; first compound 3.162 µM) | relative viability ([1]; first compound 10 µM) | relative viability ([1]; first compound 31.62 µM) | relative viability ([1]; first compound 100 µM)
201T | 1 | 0.896 | 0.907 | 0.929 | 1.19 | 1.04 | 1.04 | 1.09 | 0.989 | 1.04 | 0.643 | 0.668 | 0.605 | 0.611 | 0.625 | 0.991 | 0.679 | 0.729 | 0.57 | 0.638
ChaGo-K-1 | 0.217 | 0.205 | 0.212 | 0.237 | 0.255 | 0.591 | 0.703 | 0.44 | 0.495 | 0.533 | 0.838 | 0.976 | 0.919 | 0.907 | 0.958 | 0.218 | 0.219 | 0.204 | 0.226 | 0.192
NCI-H1755 | 0.608 | 0.541 | 0.605 | 0.632 | 0.617 | 0.527 | 0.63 | 0.533 | 0.364 | 0.428 | 0.47 | 0.704 | 0.439 | 0.434 | 0.469 | 0.67 | 0.449 | 0.492 | 0.424 | 0.54
NCI-H1666 | 0.684 | 0.638 | 0.643 | 0.7 | 0.706 | 0.974 | 0.975 | 1.01 | 1.03 | 0.957 | 0.95 | 0.91 | 0.867 | 0.768 | 0.704 | 0.606 | 0.596 | 0.474 | 0.507 | 0.515
PC-3 [JPC-3] | 0.96 | 0.899 | 1 | 0.855 | 1.03 | 0.663 | 0.653 | 0.712 | 0.739 | 0.779 | 0.799 | 0.899 | 0.828 | 0.847 | 0.812 | 0.943 | 0.896 | 0.629 | 0.635 | 0.704
NCI-H358 | 0.105 | 0.0955 | 0.105 | 0.101 | 0.108 | 0.478 | 0.364 | 0.436 | 0.338 | 0.325 | 0.527 | 0.516 | 0.562 | 0.411 | 0.602 | 0.112 | 0.0941 | 0.101 | 0.104 | 0.0923
NCI-H1975 | 0.79 | 0.819 | 0.719 | 0.875 | 0.867 | 0.244 | 0.337 | 0.192 | 0.198 | 0.257 | 0.691 | 0.702 | 0.67 | 0.687 | 0.656 | 0.592 | 0.431 | 0.181 | 0.141 | 0.203
LC-2-ad | 0.425 | 0.479 | 0.396 | 0.425 | 0.53 | 1.01 | 1.13 | 1.04 | 0.897 | 0.956 | 0.807 | 0.838 | 1.01 | 0.831 | 0.84 | – | 0.357 | 0.379 | – | 0.311
NCI-H1993 | 0.617 | 0.59 | 0.592 | 0.607 | 0.641 | 1.04 | 0.918 | 0.949 | 0.881 | 0.823 | 0.778 | 1.01 | 1.06 | 0.9 | 0.658 | 0.586 | 0.636 | 0.573 | 0.529 | 0.559
CAL-12T | 0.417 | 0.363 | 0.34 | 0.365 | 0.394 | 0.96 | 0.302 | 0.216 | 0.672 | 0.364 | 0.654 | 0.757 | 0.618 | 0.636 | 0.485 | 0.348 | 0.22 | 0.234 | – | 0.226
H3255 | 0.721 | 0.642 | 0.589 | 0.541 | 1.2 | 0.922 | 0.609 | 0.935 | 0.83 | 0.828 | 0.814 | 0.887 | 0.874 | 0.773 | 0.839 | 0.642 | 0.896 | 0.574 | 0.572 | 0.708
NCI-H727 | 0.543 | 0.628 | 0.625 | 0.674 | 0.746 | 0.325 | 0.276 | 0.345 | 0.346 | 0.278 | 0.527 | 0.575 | 0.483 | 0.495 | 0.569 | 0.505 | 0.657 | 0.52 | – | 0.579
NCI-H1355 | 0.679 | 0.587 | 0.544 | 0.54 | 0.617 | 0.822 | 0.73 | 0.748 | 0.747 | 0.659 | 0.742 | 0.742 | 0.78 | 0.834 | 0.576 | 0.471 | 0.389 | 0.328 | 0.302 | 0.294
LXF-289 | 0.253 | 0.175 | 0.219 | 0.253 | 0.317 | 0.69 | 0.721 | 0.659 | 0.573 | 0.781 | 1.16 | 1.22 | 1.09 | 1.19 | 1.2 | 0.209 | 0.172 | 0.174 | 0.147 | 0.14
NCI-H3122 | 0.38 | 0.426 | 0.346 | 0.415 | 0.566 | 0.0794 | 0.103 | 0.092 | 0.0739 | 0.0873 | 0.682 | 1.04 | 1.03 | 1.12 | 1.06 | 0.438 | 0.325 | 0.375 | – | 0.44
NCI-H2342 | 0.618 | 0.685 | 0.448 | 0.593 | 0.528 | 0.896 | 0.763 | 0.59 | 0.756 | 0.726 | 0.415 | 0.516 | 0.472 | 0.52 | 0.493 | 0.514 | 0.486 | 0.494 | 0.453 | 0.454
